Results published in patent publication US20230172924A1, “THERAPEUTIC AGENT FOR BREAST CANCER” (Eisai R&D Management Co., Ltd., priority 2020, published 2023).

What was measured:
[1] = tested on: human-derived breast cancer cell line MCF-7-hCYP19A1; test: Cell number (CellTiter Glo 2.0 emission) of MCF-7-hCYP19A1 cells with Compound A and aromatase inhibitors; type: cell-based; details: Compound A 1,000 nmol/L, 7 days culture with androstenedione, FGF2, FGF10, n=3
[2] = tested on: human-derived breast cancer cell line MCF-7-hCYP19A1; test: Antitumor effect of compound A and letrozole on subcutaneously transplanted MCF-7-hCYP19A1 tumor in ovariectomized BALB/c nude mice; type: in vivo; details: letrozole 0.01 mg/mouse, or both, oral once a day; for Average tumor volume after starting drug administration, Day 0: Day 0, compound A 25 mg/kg; for Average tumor volume after starting drug administration, Day 4: Day 4, compound A 25 mg/kg; for Average tumor volume after starting drug administration, Day 7: Day 7, compound A 25 mg/kg; for Average tumor volume after starting drug administration, Day 11: Day 11, compound A 25 mg/kg; for Average tumor volume after starting drug administration, Day 14: Day 14, compound A 25 mg/kg
[3] = tested on: human breast cancer patient-derived tumor (OD-BRE-0438); test: Antitumor effect of compound A and fulvestrant on OD-BRE-0438 patient-derived tumor subcutaneously transplanted in NOD-SCID mice; type: in vivo; details: fulvestrant 250 mg/kg s.c. days 0 and 7, combination both; for Average tumor volume after starting drug administration, Day 0: Day 0, compound A 25 mg/kg oral once a day; for Average tumor volume after starting drug administration, Day 4: Day 4, compound A 25 mg/kg oral once a day; for Average tumor volume after starting drug administration, Day 7: Day 7, compound A 25 mg/kg oral once a day; for Average tumor volume after starting drug administration, Day 11: Day 11, compound A 25 mg/kg oral once a day; for Average tumor volume after starting drug administration, Day 14: Day 14, compound A 25 mg/kg oral once a day
[4] = Table 3, letrozole 2,000 nmol/L or both
[5] = Table 4, anastrozole 10,000 nmol/L or both
[6] = Table 5, anastrozole 2,000 nmol/L or both

N#Cc1ccc(C(c2ccc(C#N)cc2)n2cncn2)cc1 [Letrozole, letrozole]
Emission value (count per second) [1, 4]: 1,410,920 count per second | Average tumor volume after starting drug administration, Day 0 [2]: 132.4 mm^3 | Average tumor volume after starting drug administration, Day 4 [2]: 147.3 mm^3 | Average tumor volume after starting drug administration, Day 7 [2]: 140.6 mm^3 | Average tumor volume after starting drug administration, Day 11 [2]: 159.6 mm^3 | Average tumor volume after starting drug administration, Day 14 [2]: 162.0 mm^3

CNC(=O)n1ccc2cc(Oc3ccnc(NC(=O)c4ccc(C5CCN(CCO)CC5)cc4)c3)c(OCCOC)cc21 [Compound A, 5-((2-(4-(1-(2-Hydroxyethyl)piperidin-4-yl)benzamide)pyridin-4-yl)oxy)-6-(2-methoxyethoxy)-N-methyl-1H-indole-1-carboxamide]
Average tumor volume after starting drug administration, Day 0 [3]: 148.6 mm^3 | Average tumor volume after starting drug administration, Day 4 [3]: 192.6 mm^3 | Average tumor volume after starting drug administration, Day 7 [3]: 211.2 mm^3 | Average tumor volume after starting drug administration, Day 11 [3]: 216.5 mm^3 | Average tumor volume after starting drug administration, Day 14 [3]: 264.3 mm^3 | Emission value (count per second) [1, 4]: 1,242,509 count per second | Emission value (count per second) [1, 5]: 1,157,051 count per second | Emission value (count per second) [1, 6]: 1,157,051 count per second | Average tumor volume after starting drug administration, Day 0 [2]: 130.7 mm^3 | Average tumor volume after starting drug administration, Day 4 [2]: 155.5 mm^3 | Average tumor volume after starting drug administration, Day 7 [2]: 182.4 mm^3 | Average tumor volume after starting drug administration, Day 11 [2]: 224.4 mm^3 | Average tumor volume after starting drug administration, Day 14 [2]: 267.5 mm^3

C[C@]12CC[C@@H]3c4ccc(O)cc4C[C@@H](CCCCCCCCC[S+]([O-])CCCC(F)(F)C(F)(F)F)[C@H]3[C@@H]1CC[C@@H]2O (some centres unmarked) [Fulvestrant, fulvestrant]
Average tumor volume after starting drug administration, Day 0 [3]: 148.7 mm^3 | Average tumor volume after starting drug administration, Day 4 [3]: 172.2 mm^3 | Average tumor volume after starting drug administration, Day 7 [3]: 208.2 mm^3 | Average tumor volume after starting drug administration, Day 11 [3]: 207.4 mm^3 | Average tumor volume after starting drug administration, Day 14 [3]: 237.6 mm^3

CC(C)(C#N)c1cc(Cn2cncn2)cc(C(C)(C)C#N)c1 [Anastrozole, anastrozole]
Emission value (count per second) [1, 5]: 1,443,072 count per second | Emission value (count per second) [1, 6]: 1,357,941 count per second
